The source made the active and inactive calls.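 Rule for the calls: active = a tumour-causing dose and a tumour site recorded for mice in at least one sex group; inconclusive = only government mouse studies exist and were judged inadequate; inactive = mouse studies exist but none gave tumours.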
Tested on: mouse carcinogenicity bioassay, TD50 from CPDB
Assay: DSSTox (CPDBAS) Carcinogenic Potency Database Summary Mouse Bioassay Results
In short: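 Values are TD50 carcinogenic potencies from mouse chronic bioassays, taking the most positive result for each sex-species. Sources are published literature and NCI/NTP studies; target sites reflect author-reported positive findings.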

[1] = TD50_Mouse_Note: no positive results, TargetSites_Mouse_Female: no positive results
[2] = TD50_Mouse_Note: TD50 is harmonic mean of more than one positive test, TargetSites_Mouse_Female: liver
[3] = TD50_Mouse_Note: TD50 is harmonic mean of more than one positive test, TargetSites_Mouse_Female: liver, lung
[4] = TargetSites_Mouse_Female: no positive results
[5] = TD50_Mouse_Note: TD50 is harmonic mean of more than one positive test, TargetSites_Mouse_Female: lung
[6] = TargetSites_Mouse_Female: liver

O=S(=O)(O)c1ccc(N=Nc2cc(S(=O)(=O)O)c3ccccc3c2O)c2ccccc12
outcome [1]: inactive; no positive results

CCN(CC)C(=S)S
outcome [1]: inactive; no positive results

Cc1c(N)nc(C)c2c1[nH]c1ccccc12
Potency [2]: 0.15 mmol/kg/day

CCCCC/C=N/N(C)C=O
Potency [3]: 0.0149 mmol/kg/day

Cc1cc(-c2ccc(N)c(C)c2)ccc1N
Potency [4]: 0.1 mmol/kg/day

ClC(Cl)Br
Potency [2]: 0.291 mmol/kg/day

ClC1(Cl)C2(Cl)C3(Cl)C4(Cl)C(Cl)(Cl)C5(Cl)C3(Cl)C1(Cl)C5(Cl)C24Cl (configuration not stated)
Potency [2]: 0.00266 mmol/kg/day

CC(N)=S
Potency (TD50_Mouse_Note: TD50 is harmonic mean of more than one positive test, harmonic mean of TD50 includes a value for upper 99% confidence li, TargetSites_Mouse_Female: liver): 0.117 mmol/kg/day

COc1ccc(C(c2ccc(OC)cc2)C(Cl)(Cl)Cl)cc1
outcome [1]: inactive; no positive results

NNCCc1ccccc1
Potency (TargetSites_Mouse_Female: lung, vascular system): 0.0623 mmol/kg/day

Cc1cn([C@H]2C[C@H](N=[N+]=[N-])[C@@H](CO)O2)c(=O)[nH]c1=O
Potency (TD50_Mouse_Note: TD50 is harmonic mean of more than one positive test, TargetSites_Mouse_Female: vagina): 1.11 mmol/kg/day

CCN(CC)C(=O)/C(Cl)=C(\C)OP(=O)(OC)OC
outcome [1]: inactive; no positive results

CC(=O)C(N=Nc1ccc(Cl)cc1Cl)C(=O)Nc1ccc(-c2ccc(NC(=O)C(N=Nc3ccc(Cl)cc3Cl)C(C)=O)c(C)c2)cc1C (configuration not stated)
outcome (TargetSites_Mouse_BothSexes: no positive results): inactive

O=S1(=O)OCCO1
outcome [1]: inactive

ClCC(Cl)CCl
Potency (TD50_Mouse_Note: TD50 is harmonic mean of more than one positive test, TargetSites_Mouse_Female: harderian gland, liver, oral cavity, stomach, uterus): 0.00593 mmol/kg/day

C=C1C/C(=C/C)C(=O)O[C@@H]2CCN3CC=C(COC(=O)[C@@]1(O)CO)[C@H]23
Potency [5]: 0.00564 mmol/kg/day

COc1cc(/C=C/C(=O)O[C@H]2CC[C@]34C[C@]35CC[C@]3(C)[C@@H]([C@H](C)CCC=C(C)C)CC[C@@]3(C)[C@@H]5CC[C@H]4C2(C)C)ccc1O
outcome [1]: inactive; no positive results

CCOc1ccc(NC(C)=O)cc1
Potency (TD50_Mouse_Note: TD50 is harmonic mean of more than one positive test, greater than ten-fold variation among TD50 values for positive res, TargetSites_Mouse_Female: urinary bladder): 11.9 mmol/kg/day

NNc1nc(-c2ccc([N+](=O)[O-])o2)cs1
Potency (TargetSites_Mouse_Female: stomach): 0.0725 mmol/kg/day

C[N+](C)(C)CCO
outcome (TD50_Mouse_Note: no positive results): inactive; no positive results

CN[C@@H](C)[C@H](O)c1ccccc1
outcome [1]: inactive; no positive results

CC(=O)NNc1ccccc1
Potency (TD50_Mouse_Note: TD50 is harmonic mean of more than one positive test, TargetSites_Mouse_Female: vascular system): 0.341 mmol/kg/day

O=CCCl
Potency [4]: 0.46 mmol/kg/day

COP(=S)(OC)Oc1ccc([N+](=O)[O-])cc1
outcome [1]: inactive; no positive results

NC(N)=S
outcome [1]: inactive

O=C1C=CC(=O)C=C1
Potency (TD50_Mouse_Note: TD50 is harmonic mean of more than one positive test, TargetSites_Mouse_Female: hematopoietic system): 0.0469 mmol/kg/day

O=C/C=C/O
Potency [6]: 0.15 mmol/kg/day

Nc1ccc(Nc2ccccc2)cc1
outcome [1]: inactive; no positive results

C=C(C)[C@H]1CC=C(C)CC1
outcome [1]: inactive; no positive results

CC(N)Cc1ccccc1 (configuration not stated)
outcome [1]: inactive; no positive results

OC[C@H]1O[C@@](CO)(O[C@H]2O[C@H](CO)[C@@H](O)[C@H](O)[C@H]2O)[C@@H](O)[C@@H]1O
outcome [1]: inactive; no positive results

ClC1=C(Cl)[C@@]2(Cl)[C@@H]3[C@@H](Cl)[C@H](Cl)C[C@@H]3C1(Cl)C2(Cl)Cl
Potency (TD50_Mouse_Note: TD50 is harmonic mean of more than one positive test, greater than ten-fold variation among TD50 values for positive res, TargetSites_Mouse_Female: liver): 0.00334 mmol/kg/day

OCc1ccco1
Potency [4]: 2.68 mmol/kg/day

NCCNc1cccc2ccccc12
outcome [1]: inactive; no positive results

Brc1c(Br)c(Br)c(Oc2c(Br)c(Br)c(Br)c(Br)c2Br)c(Br)c1Br
outcome [1]: inactive; no positive results

[N]=O
outcome [1]: inactive

CC1CO1 (configuration not stated)
Potency (TD50_Mouse_Note: TD50 is harmonic mean of more than one positive test, TargetSites_Mouse_Female: nasal cavity): 15.7 mmol/kg/day

FC(F)=C(F)F
Potency (TD50_Mouse_Note: TD50 is harmonic mean of more than one positive test, TargetSites_Mouse_Female: hematopoietic system, liver, vascular system): 0.719 mmol/kg/day

CC(=O)Nc1ccc(N=Nc2cc(C)ccc2O)cc1
Potency [6]: 3.79 mmol/kg/day

CNN
Potency [3]: 0.164 mmol/kg/day
Potency [5]: 0.0189 mmol/kg/day

CN1C(=O)C(O)N=C(c2ccccc2)c2cc(Cl)ccc21 (configuration not stated)
outcome [1]: inactive; no positive results

N#Cc1c(Cl)c(Cl)c(Cl)c(C#N)c1Cl
outcome [1]: inactive; no positive results

CC(C)OC(=O)Nc1cccc(Cl)c1
outcome [1]: inactive; no positive results

COc1ccc(OC)c(/C=C/c2ccc(N)cc2)c1
Potency [4]: 0.376 mmol/kg/day

CCN(Cc1cccc(S(=O)(=O)O)c1)c1ccc(C(=C2C=CC(=[N+](CC)Cc3cccc(S(=O)(=O)O)c3)C=C2)c2ccc(O)cc2S(=O)(=O)[O-])cc1
outcome [1]: inactive; no positive results

Cc1ccc(Cl)cc1N
Potency (TD50_Mouse_Note: TD50 is harmonic mean of more than one positive test, TargetSites_Mouse_Female: liver, vascular system): 1.38 mmol/kg/day

From PubChem BioAssay AID1199 (EPA DSSTox, 2008)
